In one assay the test system is MV4-11 cells. The assay is described as follows: Cell proliferation assay (ATPlite). It is filed as cell-based. The conditions noted are these: Homo sapiens, 120 h; MV4-11 cells, five days; read-out: GI MV411 EC50. The protocol: MV4-11 cells were seeded into a 96-well plate at 1,000 cells/well in 150 μl medium (Alpha-MEM containing 10% FBS, 100 μg/ml Normocin, and 50 μg/ml Gentamycin, Invitrogen). A HP D300 digital dispenser was used to dose cells with DMSO or test compounds across a 10-point range of concentrations (high dose of 10 μM), and cultures were grown in a humidified 5% CO2 incubator at 37° C. After five days, plates were removed from incubator and equilibrated to room temperature. An equal volume of ATPlite assay reagent was added to each well, and samples were processed according to manufacturer's instructions (Perkin Elmer). Luminescent signal was measured using an Envision plate reader equipped with a US-Luminescence detector.
A general note: Cellular ATP, detected with luciferase, serves as a proxy for viable cell number.

For assay [1], the target named is T1, WDR5 (Homo sapiens, UniProt P61964). The experiment in a line: Fluorescence Polarization (FP) binding assay. An outline of the steps: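 Displacement of fluorescein-labelled H3 (1-15) (30 nM, with 0.3 μM WDR5) or 9-Ala-FAM (20 nM, with 0.05 μM WDR5) in 80 mM sodium phosphate pH 6.5, 20 mM KCl, 0.008% Triton X-100. FP read at 485/528 nm (H3) or 480/540 nm (9-Ala-FAM); Kdisp from hyperbolic fit, mean of quadruplicates.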
(In general: Fluorescence polarisation rises when a labelled molecule tumbles more slowly, as on binding a larger partner.)

Assay [2] has as its target T1, WDR5. The experiment in a line: Surface Plasmon Resonance (SPR) assay. The class given is binding. More on the design: Full length WDR5 with an N-terminal His tag and C-terminal AviTag; His tag (N); made in house; host or cells: E. coli. Conditions: read-out: SPR Kd. An outline of the steps:
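Full-length biotinylated WDR5 (N-His, C-AviTag, E. coli) captured (~3000 RU) on streptavidin SA chip; Biacore T200. HBS-EP pH 7.4 plus 5% DMSO running buffer, 40 μl/min.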

As usually defined, the EC50 is the concentration at which the effect is half-maximal. For orientation: IC50 means the concentration that gives 50% inhibition. The term Kd denotes the equilibrium constant for the complex coming apart. For `C[C@H]1CN(c2cc(F)c(-c3cnc(N4CCNCC4)nc3)c(F)c2NC(=O)c2ccc(F)cc2C(F)(F)F)CCN1C` [Example 173, (S)—N-(6-(3,4-dimethylpiperazin-1-yl)-2,4-difluoro-3-(2-(piperazin-1-yl)pyrimidin-5-yl)phenyl)-4-fluoro-2-(trifluoromethyl)benzamide], the EC50 with MV4-11 cells came to 24.4 nM. Further, the IC50 on WDR5 [1] worked out at 16 nM. The Kd on WDR5 [2] was determined as 1.35 nM.
For the compound `CC(C)OC(=O)N1CC=C(c2c(F)cc(N3CCN(C)[C@@H](C)C3)c(NC(=O)c3c[nH]c(=O)cc3C(F)F)c2F)C1` [Example 36, Isopropyl (S)-3-(3-(4-(difluoromethyl)-6-oxo-1,6-dihydropyridine-3-carboxamido)-4-(3,4-dimethylpiperazin-1-yl)-2,6-difluorophenyl)-2,5-dihydro-H-pyrrole-1-carboxylate], the EC50 with MV4-11 cells was 54.5 nM. On WDR5 [1], the IC50 was found to be 13.2 nM. At WDR5 [2], the Kd amounted to 1.04 nM.
Consider `CC(C)[C@@H]1CN(c2ncc(-c3c(F)cc(N4C[C@@H](C)N(C)[C@@H](C)C4)c(NC(=O)c4c[nH]c(=O)cc4C(F)F)c3F)cn2)CCO1` [Example 118, N-(2,4-difluoro-3-(2-((R)-2-isopropylmorpholino)pyrimidin-5-yl)-6-((3S,5R)-3,4,5-trimethylpiperazin-1-yl)phenyl)-4-(difluoromethyl)-6-oxo-1,6-dihydropyridine-3-carboxamide], for which the EC50 in the assay with MV4-11 cells amounted to 12.2 nM. Besides, on WDR5 [1], the IC50 was determined as 12.2 nM. Moreover, the Kd on WDR5 [2] turned out to be 0.95 nM.
Regarding `C[C@H]1CN(c2ncc(-c3c(F)cc(N4CCN(C)[C@@H](C)C4)c(NC(=O)c4cn(C)c(=O)cc4C(F)(F)F)c3F)cn2)C[C@H](C)O1` [Example 163, N-(3-(2-((2S,6S)-2,6-dimethylmorpholino)pyrimidin-5-yl)-6-((S)-3,4-dimethylpiperazin-1-yl)-2,4-difluorophenyl)-1-methyl-6-oxo-4-(trifluoromethyl)-1,6-dihydropyridine-3-carboxamide], the EC50 in the assay with MV4-11 cells was found to be 83.4 nM. Also, the IC50 at WDR5 [1] was found to be 15.3 nM. The Kd on WDR5 [2] amounted to 1.1 nM.
On to `C[C@@H]1CN(c2nccc(-c3c(F)cc(N4C[C@@H](C)N(C)[C@@H](C)C4)c(NC(=O)c4c[nH]c(=O)cc4C(F)F)c3F)n2)C[C@H](C)O1` [Example 78, 4-(Difluoromethyl)-N-(3-(2-((2S,6R)-2,6-dimethylmorpholino)pyrimidin-4-yl)-2,4-difluoro-6-((3S,5R)-3,4,5-trimethylpiperazin-1-yl)phenyl)-6-oxo-1,6-dihydropyridine-3-carboxamide], for which the EC50 in the assay with MV4-11 cells was found to be 64.1 nM. For the same compound, the IC50 at WDR5 [1] turned out to be 14.7 nM. In addition, the Kd at WDR5 [2] was 1.16 nM.
For the compound `C[C@H]1CN(c2cc(F)c(C3=CCCN(c4ncc(C#N)s4)C3)c(F)c2NC(=O)c2c[nH]c(=O)cc2C(F)(F)F)CCN1C` [Example 100, (S)—N-(3-(1-(5-cyanothiazol-2-yl)-1,2,5,6-tetrahydropyridin-3-yl)-6-(3,4-dimethylpiperazin-1-yl)-2,4-difluorophenyl)-6-oxo-4-(trifluoromethyl)-1,6-dihydropyridine-3-carboxamide], the EC50 in the assay on MV4-11 cells is 181 nM. Moreover, on WDR5 [1], the IC50 is 11.9 nM. Moreover, on WDR5 [2], the Kd stood at 1.45 nM.
Consider `C[C@@H]1CN(c2nc(-c3c(F)cc(N4CCN(C)[C@@H](C)C4)c(NC(=O)c4c[nH]c(=O)cc4C(F)F)c3F)cs2)C[C@H](C)O1` [Example 132, 4-(Difluoromethyl)-N-(3-(2-((2S,6R)-2,6-dimethylmorpholino)thiazol-4-yl)-6-((S)-3,4-dimethylpiperazin-1-yl)-2,4-difluorophenyl)-6-oxo-1,6-dihydropyridine-3-carboxamide], for which the EC50 in the assay on MV4-11 cells stood at 132 nM. Moreover, on WDR5 [1], the IC50 worked out at 12.4 nM. Also, the Kd at WDR5 [2] was 2.01 nM.
